# Measured values from patent US6924314B2, “Compounds for the treatment of metabolic disorders” (Wellstat Therapeutics Corporation, priority 2001, dated 2005).
# Tests used:
# [1] = system: db/db mice; test: Antidiabetic effects in db/db mice, second experiment, 8 weeks of treatment; format: in vivo; settings: 20 mg/kg, 8 weeks of treatment
# Text: Blood samples were obtained via the retro-orbital sinus for serum chemistry analysis, or via the tail vein for glucose measurement with a test strip and glucometer.
# Groups consisted of 6-8 mice each.
# [2] = system: high fat-fed C57Bl/6J mice; test: Circulating triglycerides, free fatty acids, insulin and leptin in high fat-fed C57Bl/6J mice; format: in vivo; settings: after 2 weeks of drug treatments
# Text: The high fat-fed mouse is a model for the hypertriglyceridemia and high circulating fatty acid levels, and the insulin and leptin resistance that are found in people at risk for and with obesity, diabetes, cardiovascular disease and other disorders. Male C57Bl/6J mice, approximately 8 weeks of age, were randomly assigned into groups of 6 animals. […] Mice were fed a high-fat diet (diet number D12451, containing 45% of calories as fat (Research Diets, New Brunswick, N.J.)) for 6 weeks. […]
# [3] = system: ob/ob mice; test: Hyperglycemia, hyperlipidemia, fatty liver disease and weight gain in ob/ob obese diabetic mice, daily oral dosing; format: in vivo, C57BL/6 mice; settings: for Free Fatty Acids ± SEM / Glucose ± SEM / Triglycerides ± SEM: 4 weeks; for Mean body weight gain (grams): four week treatment period
# Text: Ob/ob mice have a defect in the gene for leptin, a protein involved in appetite regulation and energy metabolism, and are hyperphagic, obese, and insulin resistant. They develop hyperglycemia and fatty liver.
compound,measurement,setting,value
"CN(CCOc1ccc(CC2SC(=O)NC2=O)cc1)c1ccccn1 (centres unmarked) [Rosiglitazone, rosiglitazone, reference compound]",Glucose,[1],343 ± 38 mg/dL
same,Triglycerides,[1],89 ± 16 mg/dL
same,Free Fatty Acids,[2]; 1 mg/kg oral gavage,1537 ± 256.3 µmol/L
same,Triglycerides,[2]; 1 mg/kg oral gavage,76.6 ± 16.5 mg/dL
same,Free Fatty Acids,[2]; 3 mg/kg oral gavage,1833.2 ± 169.8 µmol/L
same,Triglycerides,[2]; 3 mg/kg oral gavage,103.2 ± 10.8 mg/dL
same,Free Fatty Acids,[2]; 10 mg/kg oral gavage,1810.3 ± 595 µmol/L
same,Triglycerides,[2]; 10 mg/kg oral gavage,129.5 ± 48.7 mg/dL
same,Free Fatty Acids,[2]; 100 mg/kg oral gavage,1568.5 ± 197 µmol/L
same,Triglycerides,[2]; 100 mg/kg oral gavage,88 ± 7.2 mg/dL
same,Free Fatty Acids ± SEM,[3]; 1 mg/kg/day oral,2090.75 ± 67.7 µmol/L
same,Glucose ± SEM,[3]; 1 mg/kg/day oral,142.75 ± 8.8 mg/dL
same,Triglycerides ± SEM,[3]; 1 mg/kg/day oral,109.75 ± 4.4 mg/dL
same,Mean body weight gain (grams),[3]; 1 mg/kg/day,+8.2 grams
same,Free Fatty Acids ± SEM,[3]; 3 mg/kg/day oral,2317.6 ± 85.3 µmol/L
same,Glucose ± SEM,[3]; 3 mg/kg/day oral,190.2 ± 12.7 mg/dL
same,Triglycerides ± SEM,[3]; 3 mg/kg/day oral,107.8 ± 3.8 mg/dL
same,Mean body weight gain (grams),[3]; 3 mg/kg/day,+8.5 grams
same,Free Fatty Acids ± SEM,[3]; 10 mg/kg/day oral,2606.4 ± 139.2 µmol/L
same,Glucose ± SEM,[3]; 10 mg/kg/day oral,188.2 ± 21.4 mg/dL
same,Triglycerides ± SEM,[3]; 10 mg/kg/day oral,111.2 ± 7.5 mg/dL
same,Mean body weight gain (grams),[3]; 10 mg/kg/day,+11.0 grams
same,Free Fatty Acids ± SEM,[3]; 30 mg/kg/day oral,1983.4 ± 66.1 µmol/L
same,Glucose ± SEM,[3]; 30 mg/kg/day oral,174.6 ± 11.5 mg/dL
same,Triglycerides ± SEM,[3]; 30 mg/kg/day oral,95.2 ± 4.8 mg/dL
same,Mean body weight gain (grams),[3]; 30 mg/kg/day,+12.0 grams
